Consider five compounds from ChEMBL document CHEMBL1129432, “Structure-activity relationships of a series of novel (piperazinylbutyl)thiazolidinone antipsychotic agents related to 3-[4-[4-(6-fluorobenzo[b]thien-3-yl)-1-piperazinyl]butyl]-2,5,5- trimethyl-4-thiazolidinone maleate” (J Med Chem, 1996).

Assay [1] concerns Rattus norvegicus. The experiment in a line: Compound at an intraperitoneal dose of 10 mg/Kg was tested for the inhibition of apomorphine-induced stereotypy in rat. Also noted: scale not given: the % may be the effect or the level left. It counts as functional.
The target in the next assay is D(2) dopamine receptor (Rattus norvegicus, UniProt P61169). The experiment in a line: Binding affinity towards Dopamine receptor D2 was determined in rat striatum using [3H]- spiperone as radioligand. Type of assay: tissue-based.
Assay [2] addresses Serotonin 2 (5-HT2) receptor (Rattus norvegicus, UniProt P30994+P08909+P14842). The experiment in a line: Binding affinity towards serotonin 5-HT2 receptor was determined in rat cortex using [3H]spiperone as ligand.
Assay [3] deals with T1, 5-hydroxytryptamine receptor 1A (Rattus norvegicus, UniProt P19327).
T1 sequence (P19327 whole entry): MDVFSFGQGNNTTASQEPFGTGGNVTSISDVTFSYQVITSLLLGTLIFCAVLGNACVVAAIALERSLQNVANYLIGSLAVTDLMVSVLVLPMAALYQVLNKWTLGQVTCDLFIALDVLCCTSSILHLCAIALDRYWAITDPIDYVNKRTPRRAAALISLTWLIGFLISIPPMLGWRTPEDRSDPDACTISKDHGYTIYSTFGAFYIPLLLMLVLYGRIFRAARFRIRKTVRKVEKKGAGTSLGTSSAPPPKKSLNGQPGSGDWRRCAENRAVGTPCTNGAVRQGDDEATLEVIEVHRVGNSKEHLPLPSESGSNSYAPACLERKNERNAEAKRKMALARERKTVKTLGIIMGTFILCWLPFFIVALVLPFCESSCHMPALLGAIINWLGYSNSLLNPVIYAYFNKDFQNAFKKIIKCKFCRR
The experiment in a line: Binding affinity towards serotonin 5-HT1A receptor was determined in rat hippocampus using [3H]8-OH-DPAT as ligand. Type of assay: tissue-based.

Assay [4] relates to Rattus norvegicus. The experiment in a line: Compound at an intraperitoneal dose of 80 mg/Kg was tested for the inhibition of apomorphine-induced stereotypy in rat. It counts as functional. Also noted: scale not given: the % may be the effect or the level left.
Assay [5] in a line: Compound at an intraperitoneal dose of 40 mg/Kg was tested for the inhibition of apomorphine-induced stereotypy in rat. Type of assay: functional. Also noted: scale not given: the % may be the effect or the level left.
For assay [6], the system named is Rattus norvegicus. The experiment in a line: Percentage change in Total activity (anti psychotic) when compound administered at a doe of 5 mg/kg ip in rats. It counts as functional. To be noted: route intraperitoneal.
Assay [7] relates to Rattus norvegicus. The experiment in a line: Compound at an intraperitoneal dose of 60 mg/Kg was tested for the inhibition of apomorphine-induced stereotypy in rat. It counts as functional. Also noted: scale not given: the % may be the effect or the level left.
Assay [8] relates to Rattus norvegicus. The experiment in a line: Percentage change in Social interaction when compound administered at a doe of 5 mg/kg ip in rats. Type of assay: functional. To be noted: route intraperitoneal.
Assay [9] deals with T2, 5-hydroxytryptamine receptor 2A (Homo sapiens, UniProt P28223). The experiment in a line: Inhibitory concentration against human 5-HT2A receptor in BEK cells. It counts as cell-based.
For assay [10], the system named is Rattus norvegicus. The experiment in a line: Anti psychotic effect Social interaction when compound administered at a doe of 5 mg/kg ip in rats. It counts as functional. The following applies: route intraperitoneal.
Assay [11] relates to Rattus norvegicus. The experiment in a line: Percentage change in Social interaction when compound administered at a doe of 1.25 mg/kg ip in rats. To be noted: route intraperitoneal. It counts as functional.
Assay [12] concerns Rattus norvegicus. The experiment in a line: Total activity (anti psychotic) when compound administered at a doe of 1.25 mg/kg ip in rats. Type of assay: functional. To be noted: route intraperitoneal.
For assay [13], the system named is Rattus norvegicus. The experiment in a line: Total activity (anti psychotic) when compound administered at a doe of 5 mg/kg ip in rats. Type of assay: functional. The following applies: route intraperitoneal.
Assay [14] deals with Rattus norvegicus. The experiment in a line: Percentage change in chronic single unit sampling when compound given at a dose of 10 mg/kg ip in rats. To be noted: route intraperitoneal. Type of assay: functional.
The test system of assay [15] is Rattus norvegicus. The experiment in a line: Percentage change in Social interaction when compound administered at a doe of 2.5 mg/kg ip in rats. The following applies: route intraperitoneal. It counts as functional.
Assay [16] deals with Rattus norvegicus. The experiment in a line: Total activity (anti psychotic) when compound administered at a doe of 2.5 mg/kg ip in rats. Type of assay: functional. The following applies: route intraperitoneal.
The subject of assay [17] is Rattus norvegicus. The experiment in a line: Percentage change in chronic single unit sampling when compound given at a dose of 20 mg/kg ip in rats (Expt-2). It counts as functional. The following applies: route intraperitoneal.
The target of assay [18] is T2, 5-hydroxytryptamine receptor 2A. The experiment in a line: Binding affinity towards human 5-HT2A receptor in BEK cells. It counts as cell-based.
For assay [19], the system named is Rattus norvegicus. The experiment in a line: Percentage change in Total activity (anti psychotic) when compound administered at a doe of 1.25 mg/kg ip in rats. Type of assay: functional. The following applies: route intraperitoneal.
Assay [20] has as its system Rattus norvegicus. The experiment in a line: Percentage change in chronic single unit sampling when compound given at a dose of 20 mg/kg ip in rats. Type of assay: functional. The following applies: route intraperitoneal.
The target of assay [21] is T3, D(4) dopamine receptor (Homo sapiens, UniProt P21917).
T3 sequence (P21917 whole entry): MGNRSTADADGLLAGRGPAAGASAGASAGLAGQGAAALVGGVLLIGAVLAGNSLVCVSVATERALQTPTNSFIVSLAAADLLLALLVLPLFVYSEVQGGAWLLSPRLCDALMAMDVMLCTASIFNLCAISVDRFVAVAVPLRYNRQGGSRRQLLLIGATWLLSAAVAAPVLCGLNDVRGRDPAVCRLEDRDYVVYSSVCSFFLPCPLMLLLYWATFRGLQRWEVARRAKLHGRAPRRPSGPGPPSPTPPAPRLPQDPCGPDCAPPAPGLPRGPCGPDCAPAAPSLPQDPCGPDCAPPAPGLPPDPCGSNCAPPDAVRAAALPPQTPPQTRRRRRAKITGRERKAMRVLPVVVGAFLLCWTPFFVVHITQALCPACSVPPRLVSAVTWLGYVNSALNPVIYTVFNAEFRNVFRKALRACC
Description: Inhibitory concentration against human Dopamine receptor D4.2 in CHO cells

Assay [22] has as its system Rattus norvegicus. The experiment in a line: Anti psychotic effect Social interaction when compound administered at a doe of 2.5 mg/kg ip in rats. Type of assay: functional. The following applies: route intraperitoneal.
Assay [23] has as its system Rattus norvegicus. The experiment in a line: Percentage change in Total activity (anti psychotic) when compound administered at a doe of 2.5 mg/kg ip in rats. It counts as functional. The following applies: route intraperitoneal.
Assay [24] has as its system Rattus norvegicus. The experiment in a line: Compound at an intraperitoneal dose of 50 mg/Kg was tested for the inhibition of apomorphine-induced stereotypy in rat. It counts as functional. Also noted: scale not given: the % may be the effect or the level left.
Assay [25] concerns Rattus norvegicus. The experiment in a line: Anti psychotic effect Social interaction when compound administered at a doe of 1.25 mg/kg ip in rats. It counts as functional. To be noted: route intraperitoneal.
The test system of assay [26] is Rattus norvegicus. The experiment in a line: Percentage change in chronic single unit sampling when compound given at a dose of 10 mg/kg ip (Expt-2). Type of assay: functional. To be noted: route intraperitoneal.
For assay [27], the target named is T3, D(4) dopamine receptor. The experiment in a line: Binding affinity against human Dopamine receptor D4.2 in CHO cells. Type of assay: cell-based.
Assay [28] concerns Rattus norvegicus. The experiment in a line: Compound at an intraperitoneal dose of 2.5 mg/Kg was tested for the inhibition of apomorphine-induced stereotypy in rat. Type of assay: functional. Also noted: scale not given: the % may be the effect or the level left.
In assay [29] the test system is Rattus norvegicus. The experiment in a line: Compound at an intraperitoneal dose of 5 mg/Kg was tested for the inhibition of apomorphine-induced stereotypy in rat. Also noted: scale not given: the % may be the effect or the level left. Type of assay: functional.
Assay [30] concerns Rattus norvegicus. The experiment in a line: Compound at an intraperitoneal dose of 30 mg/Kg was tested for the inhibition of apomorphine-induced stereotypy in rat. Type of assay: functional. Also noted: scale not given: the % may be the effect or the level left.
Assay [31] concerns Rattus norvegicus. The experiment in a line: Compound at an intraperitoneal dose of 20 mg/Kg was tested for the inhibition of apomorphine-induced stereotypy in rat. Also noted: scale not given: the % may be the effect or the level left. It counts as functional.

Each structure is given as a SMILES string.

D(2) dopamine receptor, sequence (P61169 whole entry): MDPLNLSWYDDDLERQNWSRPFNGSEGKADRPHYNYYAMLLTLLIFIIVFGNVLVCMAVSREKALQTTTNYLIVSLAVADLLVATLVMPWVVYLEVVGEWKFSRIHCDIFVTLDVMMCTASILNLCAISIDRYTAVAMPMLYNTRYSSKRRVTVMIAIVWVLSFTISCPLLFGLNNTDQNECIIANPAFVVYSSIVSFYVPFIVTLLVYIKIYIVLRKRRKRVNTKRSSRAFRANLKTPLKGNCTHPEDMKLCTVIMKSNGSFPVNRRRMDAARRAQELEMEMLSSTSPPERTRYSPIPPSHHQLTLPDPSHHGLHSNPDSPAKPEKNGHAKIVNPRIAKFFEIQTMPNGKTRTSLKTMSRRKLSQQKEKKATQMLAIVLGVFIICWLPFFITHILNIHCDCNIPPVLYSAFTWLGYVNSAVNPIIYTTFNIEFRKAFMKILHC
T2 sequence (P28223 whole entry): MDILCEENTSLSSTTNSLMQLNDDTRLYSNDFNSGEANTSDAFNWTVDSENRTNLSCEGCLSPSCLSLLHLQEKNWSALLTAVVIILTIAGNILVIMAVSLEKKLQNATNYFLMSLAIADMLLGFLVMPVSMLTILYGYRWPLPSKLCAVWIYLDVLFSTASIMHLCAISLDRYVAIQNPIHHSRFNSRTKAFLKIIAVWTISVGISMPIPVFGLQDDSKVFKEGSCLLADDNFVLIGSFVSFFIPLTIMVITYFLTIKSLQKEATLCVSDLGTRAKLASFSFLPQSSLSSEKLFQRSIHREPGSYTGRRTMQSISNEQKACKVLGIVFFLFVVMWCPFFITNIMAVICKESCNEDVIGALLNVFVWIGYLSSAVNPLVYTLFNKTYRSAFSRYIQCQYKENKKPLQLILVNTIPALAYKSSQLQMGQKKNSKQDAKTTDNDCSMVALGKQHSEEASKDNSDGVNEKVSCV

The term IC50 denotes the concentration that gives 50% inhibition. `CC1(C)SCN(CCCCN2CCN(c3csc4cc(F)ccc34)CC2)C1=O`: the Activity with Rattus norvegicus [1] is 0%. Also, the concentration for half-maximal inhibition (IC50) at D(2) dopamine receptor was 14 nM; in [2], 10 nM.
As to `O=C1N(CCCCN2CCN(c3csc4ccccc34)CC2)CSC12CCCCC2`, the IC50 in assay [3] was 102 nM; at D(2) dopamine receptor, 218 nM; in assay [2] it was 196 nM. The Activity in the assay on Rattus norvegicus [4] was 50%; in assay [5], 33%.
The term Ki denotes a dissociation constant, usually derived from enzyme kinetics or from competition with a known ligand. As for `CC1SC2(CCCC2)C(=O)N1CCCCN1CCN(c2csc3cc(F)ccc23)CC1` (stereo not drawn), the Change is on record as -36% with Rattus norvegicus [6]; 5% with Rattus norvegicus [8]; 13% in the assay with Rattus norvegicus [11]; -27% in the assay on Rattus norvegicus [14]; 14% in the assay on Rattus norvegicus [15]; -8% in the assay on Rattus norvegicus [17]. Also, the Change in the assay on Rattus norvegicus [19] was 1%; in the assay on Rattus norvegicus [20], -39%; with Rattus norvegicus [23], 18%; in the assay with Rattus norvegicus [26], -12%. For the same compound, the IC50 in [3] is 189 nM; in [9], 8 nM; at D(2) dopamine receptor, 954 nM; against D(4) dopamine receptor [21], 713 nM; in [2], 131 nM. The Activity is listed as 50% with Rattus norvegicus [7] and 20% in the assay on Rattus norvegicus [24]. The values for the Social interaction with Rattus norvegicus [10], in the assay on Rattus norvegicus [22] and with Rattus norvegicus [25] were 97.3, 106.5 and 108, respectively. Also, the Total activity in the assay on Rattus norvegicus [12] stood at 146; in the assay with Rattus norvegicus [13], 82.1; with Rattus norvegicus [16], 106.3. In addition, the Ki was determined as 4 nM in assay [18] and 117 nM at D(4) dopamine receptor [27].
Take `CC(C)(O)C1SCN(CCCCN2CCN(c3csc4cc(F)ccc34)CC2)C1=O` (stereo not drawn): the Activity was 10% in the assay on Rattus norvegicus [28] and 40% with Rattus norvegicus [29]. In addition, the concentration for half-maximal inhibition (IC50) in [3] amounted to 91 nM; on D(2) dopamine receptor, 453 nM; in assay [2] it was 105 nM.
Consider `CC1SC2(CCCC2)C(=O)N1CCCCN1CCN(c2nsc3ccccc23)CC1` (stereo not drawn), for which the values for the IC50 (in assay [3]; at D(2) dopamine receptor; in [2]) were 3 nM, 154 nM and 9.6 nM, respectively. The Activity with Rattus norvegicus [30] turned out to be 100%; in the assay on Rattus norvegicus [31], 10%.
